System: Puccinia recondita
Experiment: Curative activity against Puccinia recondita on wheat (leaf rust of wheat)
Type: in vivo, Puccinia recondita on wheat c.v. Frühgold
Settings: 16 ppm, sprayed the day after infection, 7 days in greenhouse, untreated plants 80% infection
Procedure: The active ingredients, separately or together, were prepared as a 10% strength emulsion in a mixture of 70% by weight of cyclohexanone, 20% by weight of Nekanil® LN (Lutensol® AP6, wetting agent having emulsifying and dispersant action based on ethoxylated alkylphenols) and 10% by weight of Wettol® EM (nonionic emulsifier based on ethoxylated castor oil) and diluted with water to the desired concentration.
Leaves of potted wheat seedlings c.v. “Frühgold” were dusted with leaf rust spores (Puccinia recondite). The pots were then placed for 24 hours into a chamber with high atmospheric humidity (90 to 95%) at 20 to 25° C. During this time, the spores germinated, and the germinal tubes penetrated the leaf tissue. The next day, the infected plants were sprayed to runoff point with an aqueous spray liquor which had been prepared using a stock solution of 10% of active ingredient, 63% of cyclohexanone and 27% of emulsifier. After the spray coating had dried on, the test plants were cultivated for 7 days in a greenhouse at from 20 to 22° C. and a relative atmospheric humidity of 65 to 70%. The extent of rust development on the leaves was then determined.

Row | SMILES | % infection (rust development on the leaves)
1 | CNC(=O)C(=NOC)c1ccccc1COc1ccc(-n2nc(C)cc2C)cc1Cl [I-11, N-methyl-2-{2-chloro-[4-(3,5-dimethyl)pyrazol-1-yl]phenoxymethylene}-phenylglyoxamide O-methyloxime] | no infection
2 | CON=C(C(=O)OC)c1ccccc1COc1ccc(-n2nc(C)cc2C)cc1Cl [I-12, methyl 2-{2-chloro-[4-(3,5-dimethyl)-pyrazol-1-yl]phenoxymethylene}phenylglyoxylate O-methyloxime] | no infection

Reference: patent US6583090B1, “Hetaryl-substituted benzyl phenyl ethers, method for the production thereof, and their use for combating harmful fungi and animal pests” (priority 1998, dated 2003)
